Laboratory results reported in patent US9156801B2, “2-substituted oleanolic acid derivative, method preparing for same, and application thereof” (HANGZHOU BENSHENG PHARMACEUTICAL CO., LTD., priority 2011, dated 2015).
In brackets after ≈: the same amount, converted by molar mass. Values belong to the molecule of their own block, whether it stands above or below them.

Key:
Becap37 cell line = assay: solid tumor cell growth inhibition, MTT; assay type: cell-based; settings: Homo sapiens; for inhibition at 16 µg/mL: Becap37, 16 μg/mL compound, 72 h, read-out: IR (cell proliferation inhibition rate); for IC50: Becap37, 72 h
Summary of the method: (§1)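 MTT read-out of relative living-cell number after a 72 h compound exposure at 37° C, 5% CO2. Cells had been plated at 4000 per well in DMEM high glucose containing 10% fetal bovine serum and allowed 24 h before dosing. Inhibition is referenced to untreated wells set at 0%.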

A549 cell line = assay: solid tumor cell growth inhibition, MTT; assay type: cell-based; settings: Homo sapiens; for IC50: A549, 72 h; for inhibition at 16 µg/mL: A549, 16 μg/mL compound, 72 h, read-out: IR (cell proliferation inhibition rate)
Summary of the method: as §1

MGC 803 cell line = assay: solid tumor cell growth inhibition, MTT; assay type: cell-based; settings: Homo sapiens; for inhibition at 16 µg/mL: MGC 803, 16 μg/mL compound, 72 h, read-out: IR (cell proliferation inhibition rate); for IC50: MGC 803, 72 h
Summary of the method: as §1

Hela cell line = assay: solid tumor cell growth inhibition, MTT; assay type: cell-based; settings: Homo sapiens, 72 h; for IC50: HeLa; for inhibition at 16 µg/mL: Hela, 16 μg/mL compound, read-out: IR (cell proliferation inhibition rate)
Summary of the method: as §1

PANC-1 cell line = assay: solid tumor cell growth inhibition, MTT; assay type: cell-based; settings: Homo sapiens; for IC50: PANC-1, 72 h; for inhibition at 16 µg/mL: PANC-1, 16 μg/mL compound, 72 h, read-out: IR (cell proliferation inhibition rate)
Summary of the method: as §1

RKO cell line = assay: solid tumor cell growth inhibition, MTT; assay type: cell-based; settings: Homo sapiens, 72 h; for inhibition at 16 µg/mL: 16 μg/mL compound, read-out: IR (cell proliferation inhibition rate)
Summary of the method: as §1

CaES-17 cell line = assay: solid tumor cell growth inhibition, MTT; assay type: cell-based; settings: Homo sapiens, CaEs17; for inhibition at 16 µg/mL: CaES-17, 16 μg/mL compound, 72 h, read-out: IR (cell proliferation inhibition rate); for IC50: CaES-17, 72 h
Summary of the method: as §1

CNE cell line = assay: solid tumor cell growth inhibition, MTT; assay type: cell-based; settings: Homo sapiens, 72 h; for inhibition at 16 µg/mL: 16 μg/mL compound, read-out: IR (cell proliferation inhibition rate)
Summary of the method: as §1

PC-3 cell line = assay: solid tumor cell growth inhibition, MTT; assay type: cell-based; settings: Homo sapiens; for IC50: PC-3, 72 h; for inhibition at 16 µg/mL: PC-3, 16 μg/mL compound, 72 h, read-out: IR (cell proliferation inhibition rate)
Summary of the method: as §1

Hep-2 cell line = assay: solid tumor cell growth inhibition, MTT; assay type: cell-based; settings: Homo sapiens; for IC50: HEp-2, 72 h; for inhibition at 16 µg/mL: Hep-2, 16 μg/mL compound, 72 h, read-out: IR (cell proliferation inhibition rate)
Summary of the method: as §1

U87 MG cell line = assay: solid tumor cell growth inhibition, MTT; assay type: cell-based; settings: Homo sapiens, U-87 MG, 72 h; for inhibition at 16 µg/mL: 16 μg/mL compound, read-out: IR (cell proliferation inhibition rate)
Summary of the method: as §1

MG-63 cell line = assay: solid tumor cell growth inhibition, MTT; assay type: cell-based; settings: Homo sapiens; for IC50: MG-63, 72 h; for inhibition at 16 µg/mL: MG-63, 16 μg/mL compound, 72 h, read-out: IR (cell proliferation inhibition rate)
Summary of the method: as §1

SK-OV-3 cell line = assay: solid tumor cell growth inhibition, MTT; assay type: cell-based; settings: Homo sapiens; for IC50: SK-OV-3, 72 h; for inhibition at 16 µg/mL: SK-OV-3, 16 μg/mL compound, 72 h, read-out: IR (cell proliferation inhibition rate)
Summary of the method: as §1

RPMI8226 cell line = assay: multiple myeloma cell growth inhibition, MTT; assay type: cell-based; settings: Homo sapiens, RPMI-8226; for inhibition at 16 µg/mL: RPMI8226, 16 μg/mL compound, 72 h, read-out: IR (cell proliferation inhibition rate); for IC50: RPMI8226, 72 h
Summary of the method: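 RPMI8226 cells (6000 per well) in RPMI 1640 with 10% FBS were exposed to several concentrations of compound for 72 h at 37° C and 5% CO2. Viable cells were quantified by MTT, with inhibition set to 0% in untreated controls.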

NB4 cell line = assay: leukemia cell growth inhibition, MTT; assay type: cell-based; settings: Homo sapiens, NB-4; for inhibition at 16 µg/mL: NB4, 16 μg/mL compound, 72 h, read-out: IR (cell proliferation inhibition rate); for IC50: NB4, 72 h
Summary of the method: (§2)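 Leukemia cells (6000 per well) are grown in 1640 medium containing 10% fetal bovine serum, treated with several concentrations of test derivative, and incubated 72 hours at 37° C in 5% CO2. The relative viable count is then measured by MTT.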

Kasumi-1 cell line = assay: leukemia cell growth inhibition, MTT; assay type: cell-based; settings: Homo sapiens; for inhibition at 16 µg/mL: Kasumi-1, 16 μg/mL compound, 72 h, read-out: IR (cell proliferation inhibition rate); for IC50: Kasumi-1, 72 h
Summary of the method: as §2

Jurkat cell line = assay: leukemia cell growth inhibition, MTT; assay type: cell-based; settings: Homo sapiens, 72 h; for inhibition at 16 µg/mL: 16 μg/mL compound, read-out: IR (cell proliferation inhibition rate)
Summary of the method: as §2

K562/adr cell line = assay: leukemia cell growth inhibition, MTT; assay type: cell-based; settings: Homo sapiens, 72 h; for IC50: K562/Adr; for inhibition at 16 µg/mL: K562/adr, 16 μg/mL compound, read-out: IR (cell proliferation inhibition rate)
Summary of the method: as §2

H9 cell line = assay: leukemia cell growth inhibition, MTT; assay type: cell-based; settings: Homo sapiens; for IC50: H9, 72 h; for inhibition at 16 µg/mL: H9, 16 μg/mL compound, 72 h, read-out: IR (cell proliferation inhibition rate)
Summary of the method: as §2

Hep G2 cell line = assay: solid tumor cell growth inhibition, MTT; assay type: cell-based, human; settings: for inhibition at 16 µg/mL / IC50: Homo sapiens; for inhibition at 16 µg/mL: HepG2, 72 h, Hep G2, 16 μg/mL compound, 72 h, read-out: IR (cell proliferation inhibition rate); for IC50: HepG2, Hep G2, 72 h
Summary of the method: as §1

- IC50 (Becap37 cell line): > 16 µg/mL
- IC50 (A549 cell line): > 16 µg/mL
- IC50 (MGC 803 cell line): > 16 µg/mL
- IC50 (Hela cell line): > 16 µg/mL
- IC50 (PANC-1 cell line): > 16 µg/mL
- IC50 (RKO cell line): > 16 µg/mL
- IC50 (CaES-17 cell line): > 16 µg/mL
- IC50 (CNE cell line): > 16 µg/mL
- IC50 (PC-3 cell line): > 16 µg/mL
- IC50 (Hep-2 cell line): > 16 µg/mL
- IC50 (U87 MG cell line): > 16 µg/mL
- IC50 (MG-63 cell line): > 16 µg/mL
- IC50 (SK-OV-3 cell line): > 16 µg/mL
- IC50 (RPMI8226 cell line): > 16 µg/mL
- IC50 (NB4 cell line): > 16 µg/mL
- IC50 (Kasumi-1 cell line): > 16 µg/mL
- IC50 (Jurkat cell line): > 16 µg/mL
- IC50 (K562/adr cell line): > 16 µg/mL
- IC50 (H9 cell line): > 16 µg/mL
- IC50 (Hep G2 cell line): > 16 µg/mL
SMILES: CC1(C)CC[C@]2(C(=O)O)CC[C@]3(C)C(=CC[C@@H]4[C@@]5(C)CC[C@H](O)C(C)(C)[C@@H]5CC[C@]43C)[C@@H]2C1 [OA, Oleanolic acid]
- inhibition at 16 µg/mL (Becap37 cell line): 23.4%
- inhibition at 16 µg/mL (A549 cell line): 5%
- inhibition at 16 µg/mL (MGC 803 cell line): 19.7%
- inhibition at 16 µg/mL (Hela cell line): 22.9%
- inhibition at 16 µg/mL (PANC-1 cell line): 8.5%
- inhibition at 16 µg/mL (RKO cell line): 14.3%
- inhibition at 16 µg/mL (CaES-17 cell line): 27.4%
- inhibition at 16 µg/mL (CNE cell line): 33.9%
- inhibition at 16 µg/mL (PC-3 cell line): 29.1%
- inhibition at 16 µg/mL (Hep-2 cell line): 9.8%
- inhibition at 16 µg/mL (U87 MG cell line): 21.8%
- inhibition at 16 µg/mL (MG-63 cell line): 29.2%
- inhibition at 16 µg/mL (SK-OV-3 cell line): 8.3%
- inhibition at 16 µg/mL (RPMI8226 cell line): 2.2%
- inhibition at 16 µg/mL (NB4 cell line): 17.2%
- inhibition at 16 µg/mL (Kasumi-1 cell line): 17.2%
- inhibition at 16 µg/mL (Jurkat cell line): 9.4%
- inhibition at 16 µg/mL (K562/adr cell line): 26.5%
- inhibition at 16 µg/mL (H9 cell line): 22.8%
- proliferation inhibition effect (in words) (Hep G2 cell line; Hep G2): does not exhibit obvious proliferation inhibition effect
- inhibition at 16 µg/mL (Hep G2 cell line): -18.5%

- IC50 (Becap37 cell line): > 16 µg/mL
- IC50 (A549 cell line): > 16 µg/mL
- IC50 (MGC 803 cell line): > 16 µg/mL
- IC50 (Hela cell line): > 16 µg/mL
- IC50 (PANC-1 cell line): > 16 µg/mL
- IC50 (RKO cell line): 14.3 µg/mL (≈ 23.4 µM)
- IC50 (CaES-17 cell line): > 16 µg/mL
- IC50 (CNE cell line): > 16 µg/mL
- IC50 (PC-3 cell line): > 16 µg/mL
- IC50 (Hep-2 cell line): > 16 µg/mL
- IC50 (U87 MG cell line): > 16 µg/mL
- IC50 (MG-63 cell line): > 16 µg/mL
- IC50 (SK-OV-3 cell line): > 16 µg/mL
- IC50 (RPMI8226 cell line): 6.4 µg/mL (≈ 10.5 µM)
- IC50 (NB4 cell line): 6.86 µg/mL (≈ 11.2 µM)
- IC50 (Kasumi-1 cell line): 10.2 µg/mL (≈ 16.6 µM)
- IC50 (Jurkat cell line): 12.6 µg/mL (≈ 20.6 µM)
- IC50 (K562/adr cell line): 4.83 µg/mL (≈ 7.91 µM)
- IC50 (H9 cell line): 15.3 µg/mL (≈ 25 µM)
- IC50 (Hep G2 cell line): > 16 µg/mL
SMILES: CCN(CC)CCCNC(=O)C1C[C@@]2(C)C(CC[C@]3(C)C2CC=C2C4CC(C)(C)CC[C@]4(C(=O)O)CC[C@]23C)C(C)(C)C1=O (stereo partly drawn) [BS-OA-108]
- inhibition at 16 µg/mL (Becap37 cell line): 38.4%
- inhibition at 16 µg/mL (A549 cell line): 27.5%
- inhibition at 16 µg/mL (MGC 803 cell line): 13.1%
- inhibition at 16 µg/mL (Hela cell line): 43%
- inhibition at 16 µg/mL (PANC-1 cell line): 21.6%
- inhibition at 16 µg/mL (RKO cell line): 63.2%
- inhibition at 16 µg/mL (CaES-17 cell line): 32%
- inhibition at 16 µg/mL (CNE cell line): 42.7%
- inhibition at 16 µg/mL (PC-3 cell line): -8.2%
- inhibition at 16 µg/mL (Hep-2 cell line): 22.7%
- inhibition at 16 µg/mL (U87 MG cell line): 18.5%
- inhibition at 16 µg/mL (MG-63 cell line): 47.4%
- inhibition at 16 µg/mL (SK-OV-3 cell line): -15.6%
- inhibition at 16 µg/mL (RPMI8226 cell line): 97.3%
- inhibition at 16 µg/mL (NB4 cell line): 92.4%
- inhibition at 16 µg/mL (Kasumi-1 cell line): 74.5%
- inhibition at 16 µg/mL (Jurkat cell line): 66.5%
- inhibition at 16 µg/mL (K562/adr cell line): 96.1%
- inhibition at 16 µg/mL (H9 cell line): 57.7%
- inhibition at 16 µg/mL (Hep G2 cell line): 42.3%
